For assay [1], the system named is VCaP cells. Put plainly: VCaP growth inhibition assay. Type of assay: cell-based. As to conditions: 30 pM R1881, 9 days, CTG. The procedure, abridged:
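Growth read by CTG luminescence after 9-day exposure to compound (final 100 nM–10 fM, 1:5 steps) plus 30 pM R1881, in phenol red-free DMEM with 5% CSS. Cells pre-incubated 72 h before dosing; IC50 by nonlinear 4-parameter regression.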

Assay [2] deals with AR / CBP ternary complex. The assay can be described thus: Ternary complex formation assay (sandwich ELISA, AR capture / CBP detection) in VCaP cell lysates. The class given is cell-based. As to conditions: 1.5 hours treatment, sandwich ELISA (AR capture, CBP or p300 detection). The essentials: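 Anti-AR (AR 441)-coated plates capture AR from lysates of VCaP cells grown ≥3 days at 50K/well in 5% charcoal-stripped FBS, dosed with bifunctional for 1.5 h and lysed 30 min at 4 °C. Co-captured CBP/p300 is probed with rabbit mAb and HRP anti-rabbit, then QuantaRed fluorescence (570/585) is read at 0, 5 and 15 min.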
(In an ELISA, binding on a coated surface is turned into a signal by an enzyme label.)

Here are results for 14 molecules from US20250129070A1, “BIFUNCTIONAL ANDROGEN RECEPTOR COMPOUNDS” (priority 2023, published 2025).

As for `COc1cc(OC2C(C)(C)C(NC(=O)c3ccc(N4CCC(C5CCN(c6ccc(-c7cc8cccc(-c9nn(C%10CCOCC%10)c%10c9CN(C(C)=O)CC%10)c8cn7)cn6)CC5)CC4)cc3)C2(C)C)ccc1C#N` (stereo not shown) [Compound 267, 4-[4-[1-[5-[8-(5-acetyl-1-tetrahydropyran-4-yl-6,7-dihydro-4H-pyrazolo[4,3-c]pyridin-3-yl)-3-isoquinolyl]-2-pyridyl]-4-piperidyl]-1-piperidyl]-N-[3-(4-cyano-3-methoxy-phenoxy)-2,2,4,4-tetramethyl-cyclobutyl]benzamide], the half-maximal inhibitory concentration (IC50) – broadly, the midpoint of a concentration-inhibition curve – in assay [1] lay in the range of 1 to 100 nM. For the same molecule, the EC50 (as a rule, the concentration at which the effect is half-maximal) in assay [2] is 1 to 10 nM.

Turning to `CC(=O)N1CCc2c(c(Nc3ccc(-c4cnn(C)c4)cc3F)nn2C2CCN(CCN3CCN(c4ncc(C(=O)NC5C(C)(C)C(Oc6ccc(C#N)c(Cl)c6)C5(C)C)cn4)CC3)CC2)C1` (stereo not shown) [Compound 167, 2-[4-[2-[4-[5-acetyl-3-[2-fluoro-4-(1-methylpyrazol-4-yl)anilino]-6,7-dihydro-4H-pyrazolo[4,3-c]pyridin-1-yl]-1-piperidyl]ethyl]piperazin-1-yl]-N-[3-(3-chloro-4-cyano-phenoxy)-2,2,4,4-tetramethyl-cyclobutyl]pyrimidine-5-carboxamide], in assay [1], the IC50 fell in the range of 0.1 to 1 nM. The EC50 in assay [2] was less than 1 nM.

Turning to `CN1C(=O)CCc2cc(-c3cccc4cc(-c5ccc(CCC6CCN(c7ncc(C(=O)NC8C(C)(C)C(Oc9ccc(C#N)c(Cl)c9)C8(C)C)cn7)CC6)nc5)ncc34)ccc21` (stereo not shown) [Compound 238, N-[3-(3-chloro-4-cyano-phenoxy)-2,2,4,4-tetramethyl-cyclobutyl]-2-[4-[2-[5-[8-(1-methyl-2-oxo-3,4-dihydroquinolin-6-yl)-3-isoquinolyl]-2-pyridyl]ethyl]-1-piperidyl]pyrimidine-5-carboxamide], the half-inhibitory concentration (IC50) in assay [1] was greater than 100 nM. Besides, the half-maximal effective concentration (EC50) in assay [2] lay in the range of 10 to 100 nM.

As for `CC(=O)N1CCc2c(c(-c3cccc4cc(-c5ccc(C(=O)NCCC6CCN(c7ncc(C(=O)NC8C(C)(C)C(Oc9ccc(C#N)c(Cl)c9)C8(C)C)cn7)CC6)nc5)ncc34)nn2C2CCOCC2)C1` (stereo not shown) [Compound 179, 2-[4-[2-[[5-[8-(5-acetyl-1-tetrahydropyran-4-yl-6,7-dihydro-4H-pyrazolo[4,3-c]pyridin-3-yl)-3-isoquinolyl]pyridine-2-carbonyl]amino]ethyl]-1-piperidyl]-N-[3-(3-chloro-4-cyano-phenoxy)-2,2,4,4-tetramethyl-cyclobutyl]pyrimidine-5-carboxamide], the half-maximal inhibitory concentration (IC50) in assay [1] lay within 0.1 to 1 nM. Also, in assay [2], the EC50 was less than 1 nM.

In assay [1], `CC(=O)N1CCc2c(c(N3CCCc4cc(-c5cnn(C)c5)c(C)cc43)nn2C2CCN(CC3C(C)CN(c4ncc(C(=O)NC5C(C)(C)C(Oc6ccc(C#N)c(Cl)c6)C5(C)C)cn4)CC3C)CC2)C1` (stereo not shown) [Compound 444, 2-[4-[[4-[5-acetyl-3-[7-methyl-6-(1-methylpyrazol-4-yl)-3,4-dihydro-2H-quinolin-1-yl]-6,7-dihydro-4H-pyrazolo[4,3-c]pyridin-1-yl]-1-piperidyl]methyl]-3,5-dimethyl-1-piperidyl]-N-[3-(3-chloro-4-cyano-phenoxy)-2,2,4,4-tetramethyl-cyclobutyl]pyrimidine-5-carboxamide] yielded an IC50 of 0.1 to 1 nM. This molecule also yielded a half-maximal effective concentration (EC50) in assay [2] of less than 1 nM.

`CC(=O)N1CCc2c(c(Nc3ccc(-c4cnn(C)c4)cc3F)nn2C2CN(C3CCN(c4ncc(C(=O)NC5C(C)(C)C(Oc6ccc(C#N)c(Cl)c6)C5(C)C)cn4)CC3)C2)C1` (stereo not shown) [Compound 5, 2-[4-[3-[5-acetyl-3-[2-fluoro-4-(1-methylpyrazol-4-yl)anilino]-6,7-dihydro-4H-pyrazolo[4,3-c]pyridin-1-yl]azetidin-1-yl]-1-piperidyl]-N-[3-(3-chloro-4-cyano-phenoxy)-2,2,4,4-tetramethyl-cyclobutyl]pyrimidine-5-carboxamide]: the IC50 in assay [1] is greater than 100 nM. Moreover, in assay [2], the EC50 was greater than 100 nM.

In assay [1], `CC(=O)N1CCc2c(c(N3CCCc4cc(-c5cnn(C)c5)c(C(F)F)cc43)nn2C2CCC(N(C)C3CCN(c4ncc(C(=O)NC5C(C)(C)C(Oc6ccc(C#N)c(Cl)c6)C5(C)C)cn4)CC3)CC2)C1` (stereo not shown) [Compound 284, 2-[4-[[4-[5-acetyl-3-[7-(difluoromethyl)-6-(1-methylpyrazol-4-yl)-3,4-dihydro-2H-quinolin-1-yl]-6,7-dihydro-4H-pyrazolo[4,3-c]pyridin-1-yl]cyclohexyl]-methyl-amino]-1-piperidyl]-N-[3-(3-chloro-4-cyano-phenoxy)-2,2,4,4-tetramethyl-cyclobutyl]pyrimidine-5-carboxamide] came in with a half-inhibitory concentration (IC50) of no more than 0.1 nM. The molecule further registered a 50% effective concentration (EC50) in assay [2] of less than 1 nM.

In assay [1], `CC(=O)N1CCc2c(c(N3CCCc4cc(-c5cnn(C)c5)c(C)cc43)nn2C2CCN(CC3CCN(c4ncc(C(=O)NC5C(C)(C)C(Oc6ccc(C#N)c(Cl)c6C)C5(C)C)cn4)CC3(C)C)CC2)C1` (stereo not shown) [Compound 464, 2-[4-[[4-[5-acetyl-3-[7-methyl-6-(1-methylpyrazol-4-yl)-3,4-dihydro-2H-quinolin-1-yl]-6,7-dihydro-4H-pyrazolo[4,3-c]pyridin-1-yl]-1-piperidyl]methyl]-3,3-dimethyl-1-piperidyl]-N-[3-(3-chloro-4-cyano-2-methyl-phenoxy)-2,2,4,4-tetramethyl-cyclobutyl]pyrimidine-5-carboxamide] gave an IC50 of no more than 0.1 nM. In assay [2], this molecule registered a half-maximal effective concentration (EC50) of less than 1 nM.

As to `CC(=O)N1CCc2c(c(N3CCCc4cc(-c5cnn(C)c5)c(C(F)F)cc43)nn2C2CCC(C3CCC4(CC3)CN(c3ncc(C(=O)NC5C(C)(C)C(Oc6ccc(C#N)c(Cl)c6)C5(C)C)cn3)C4)CC2)C1` (stereo not shown) [Compound 377, 2-[7-[4-[5-acetyl-3-[7-(difluoromethyl)-6-(1-methylpyrazol-4-yl)-3,4-dihydro-2H-quinolin-1-yl]-6,7-dihydro-4H-pyrazolo[4,3-c]pyridin-1-yl]cyclohexyl]-2-azaspiro[3.5]nonan-2-yl]-N-[3-(3-chloro-4-cyano-phenoxy)-2,2,4,4-tetramethyl-cyclobutyl]pyrimidine-5-carboxamide], in assay [1], the 50% inhibitory concentration (IC50) is 1 to 100 nM. Further, in assay [2], the concentration for a half-maximal effect (EC50) lay in the range of 1 to 10 nM.

In assay [1], `COc1cc(OC2C(C)(C)C(NC(=O)c3ccc(OC4CCC5(CC4)CC(N4CCC(n6nc(N7CCCc8cc(-c9cnn(C)c9)c(C(F)F)cc87)c7c6CCN(C(C)=O)C7)CC4)C5)cc3)C2(C)C)ccc1C#N` (stereo not shown) [Compound 396, 4-[2-[4-[5-acetyl-3-[7-(difluoromethyl)-6-(1-methylpyrazol-4-yl)-3,4-dihydro-2H-quinolin-1-yl]-6,7-dihydro-4H-pyrazolo[4,3-c]pyridin-1-yl]-1-piperidyl]spiro[3.5]nonan-7-yl]oxy-N-[3-(4-cyano-3-methoxy-phenoxy)-2,2,4,4-tetramethyl-cyclobutyl]benzamide] displayed an IC50 of 0.1 to 1 nM. Also, the 50% effective concentration (EC50) in assay [2] was less than 1 nM.

In turn, `COC(=O)N1c2ccc3c(nc(Cc4ccccc4)n3[C@@H]3CCC[C@@H](C(=O)N4CCN(c5ncc(C(=O)NC6C(C)(C)C(Oc7ccc(C#N)c(Cl)c7)C6(C)C)cn5)CC4)C3)c2CC[C@@H]1C` (stereo partly drawn) [Compound 127, methyl (7S)-2-benzyl-3-[(1R,3R)-3-[4-[5-[[3-(3-chloro-4-cyano-phenoxy)-2,2,4,4-tetramethyl-cyclobutyl]carbamoyl]pyrimidin-2-yl]piperazine-1-carbonyl]cyclohexyl]-7-methyl-8,9-dihydro-7H-imidazo[4,5-f]quinoline-6-carboxylate] came in with an IC50 in assay [1] of no more than 0.1 nM. The half-maximal effective concentration (EC50) in assay [2] is less than 1 nM.

Turning to `CC(=O)N1CCc2c(c(N3CCCc4cc(-c5cnn(C)c5)c(C)cc43)nn2C2CCN(C3CCC4(CC3)CN(c3ncc(C(=O)NC5C(C)(C)C(Oc6ccc(C#N)c(C)c6)C5(C)C)cn3)C4)CC2)C1` (stereo not shown) [Compound 471, 2-[7-[4-[5-acetyl-3-[7-methyl-6-(1-methylpyrazol-4-yl)-3,4-dihydro-2H-quinolin-1-yl]-6,7-dihydro-4H-pyrazolo[4,3-c]pyridin-1-yl]-1-piperidyl]-2-azaspiro[3.5]nonan-2-yl]-N-[3-(4-cyano-3-methyl-phenoxy)-2,2,4,4-tetramethyl-cyclobutyl]pyrimidine-5-carboxamide], the IC50 in assay [1] lay within 0.1 to 1 nM. Besides, the concentration giving a half-maximal response (EC50) in assay [2] was less than 1 nM.

`COc1cc(OC2C(C)(C)C(NC(=O)c3ccc(N4CCC5(CC4)CC4(CC(n6nc(N7CCCc8cc(-c9cnn(C)c9)c(C(F)F)cc87)c7c6CCN(C(C)=O)C7)C4)C5)cc3)C2(C)C)ccc1C#N` (stereo not shown) [Compound 286, 4-[2-[5-acetyl-3-[7-(difluoromethyl)-6-(1-methylpyrazol-4-yl)-3,4-dihydro-2H-quinolin-1-yl]-6,7-dihydro-4H-pyrazolo[4,3-c]pyridin-1-yl]-9-azadispiro[3.1.5^6.1^4]dodecan-9-yl]-N-[3-(4-cyano-3-methoxy-phenoxy)-2,2,4,4-tetramethyl-cyclobutyl]benzamide] displayed an IC50 in assay [1] of 1 to 100 nM. Besides, the EC50 in assay [2] is greater than 100 nM.

For `COc1cc(OC2C(C)(C)C(NC(=O)c3ccc(N4CCN(C5CCN(c6ccc(-c7cc8c(cn7)N(c7nn(C9CCOCC9)c9c7CN(C(C)=O)CC9)CCC8)cn6)CC5)CC4)cc3)C2(C)C)ccc1C#N` (stereo not drawn) [Compound 323, 4-[4-[1-[5-[l-(5-acetyl-1-tetrahydropyran-4-yl-6,7-dihydro-4H-pyrazolo[4,3-c]pyridin-3-yl)-3,4-dihydro-2H-1,7-naphthyridin-6-yl]-2-pyridyl]-4-piperidyl]piperazin-1-yl]-N-[3-(4-cyano-3-methoxy-phenoxy)-2,2,4,4-tetramethyl-cyclobutyl]benzamide], the concentration for half-maximal inhibition (IC50) in assay [1] was no more than 0.1 nM. Further, in assay [2], the EC50 was less than 1 nM.
